In patent publication US11072607B2, “Inhibitors of RIP1 kinase and methods of use thereof” (priority 2016, dated 2021):

Molecular target: human RIP1 kinase domain (2-375) (Homo sapiens (Human), UniProt Q13546)
Assay: RIP1 kinase inhibition assay (biochemical, Transcreener ADP assay)
Conditions: tight-binding apparent inhibition constant (Ki app, Morrison equation); 50 nM enzyme, 50 uM ATP, 2 hours incubation, fluorescence polarization; read-out: RIP1 Ki
Description: Example 45: RIP1 Kinase Inhibition Assays (Biochemical Assay)
The compounds of the present invention were tested for their capacity to inhibit RIP1K activity as described below.
The ability of the receptor interacting protein kinase (RIPK1) to catalyze the hydrolysis of adenosine-5′-triphosphate (ATP) is monitored using the Transcreener ADP (adenosine-5′-diphosphate) assay (BellBrook Labs). Purified human RIP1 kinase domain (2-375) (50 nM) derived from a baculovirus-infected insect cell expression system is incubated with test compounds for 2 hours in 50 mM Hepes buffer (pH 7.5) containing 30 mM MgCl2, 1 mM dithiothreitol, 50 uM ATP, 0.002% Brij-35, and 0.5% dimethyl sulfoxide (DMSO). Reactions are quenched by the addition of 1× Bell Brooks Stop buffer B (20 mM Hepes (ph 7.5), 40 mM ethylenediaminetetraacetic acid and 0.02% Brij-35) containing an additional 12 mM EDTA and 55 ug/mL ADP2 antibody and 4 nM ADP-AlexaFluor® 633 tracer. The tracer bound to the antibody is displaced by the ADP generated during the RIP1K reaction, which causes a decrease in fluorescence polarization that is measured by laser excitation at 633 nm with a FP microplate reader M1000. Fractional activity was plotted against test article concentration. Using Genedata Screener software (Genedata; Basel, Switzerland), the data were fit to the tight-binding apparent inhibition constant (Ki^app) Morrison equation [Williams, J. W. and Morrison, J. F. (1979) The kinetics of reversible tight-binding inhibition. Methods Enzymol 63: 437-67]. The following equation was used to calculate fractional activity and Ki^app: […]
where [E]T and [I]T are the total concentrations of active enzyme and test article, respectively. […]

human RIP1 kinase domain (2-375), sequence (Q13546 2-375): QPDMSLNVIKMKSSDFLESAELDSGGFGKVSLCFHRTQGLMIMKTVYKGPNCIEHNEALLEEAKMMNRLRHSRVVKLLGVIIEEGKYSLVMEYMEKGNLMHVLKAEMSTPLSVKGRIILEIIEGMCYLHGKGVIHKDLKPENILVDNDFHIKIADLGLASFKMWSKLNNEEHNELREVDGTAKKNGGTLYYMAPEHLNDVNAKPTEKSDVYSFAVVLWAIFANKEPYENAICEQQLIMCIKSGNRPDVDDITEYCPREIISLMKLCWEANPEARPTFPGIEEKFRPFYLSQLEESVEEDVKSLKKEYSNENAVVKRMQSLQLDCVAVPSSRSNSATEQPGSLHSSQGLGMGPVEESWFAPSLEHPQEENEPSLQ

SMILES	Ki [nM]
CN1C(=O)[C@@H](NC(=O)c2ncc3cnn(CC(C)(F)F)c3n2)COc2ccccc21 [Example #3, 1-(2,2-difluoropropyl)-N-[(3S)-5-methyl-4-oxo-2,3-dihydro-1,5-benzoxazepin-3-yl]pyrazolo[3,4-d]pyrimidine-6-carboxamide]	35
CN1C(=O)[C@@H](NC(=O)c2ncc3cnn(C4CC4)c3n2)COc2ccccc21 [Example #4, 1-cyclopropyl-N-[(3S)-5-methyl-4-oxo-2,3-dihydro-1,5-benzoxazepin-3-yl]pyrazolo[3,4-d]pyrimidine-6-carboxamide]	22
O=C(N[C@H]1CCc2cc(F)cc(F)c2NC1=O)c1nc2n(n1)C(c1ccccc1)CC2(F)F (stereo partly drawn) [Example #24, 7,7-difluoro-5-phenyl-N-[(3S)-7,9-difluoro-2-oxo-1,3,4,5-tetrahydro-1-benzazepin-3-yl]-5,6-dihydropyrrolo[1,2-b][1,2,4]triazole-2-carboxamide]	22
CN1C(=O)[C@@H](NC(=O)c2nc3n(n2)C(c2ccccc2)CC3(F)F)COc2ccccc21 (stereo partly drawn) [Example #25, 7,7-difluoro-5-phenyl-N-[(3S)-5-methyl-4-oxo-2,3-dihydro-1,5-benzoxazepin-3-yl]-5,6-dihydropyrrolo[1,2-b][1,2,4]triazole-2-carboxamide]	33
CN1C(=O)[C@@H](NC(=O)c2nc3n(n2)C(c2ccccc2)CC3F)CCn2nccc21 (stereo partly drawn) [Example #26, 7-fluoro-5-phenyl-N-[(6S)-4-methyl-5-oxo-7,8-dihydro-6H-pyrazolo[1,5-a][1,3]diazepin-6-yl]-6,7-dihydro-5H-pyrrolo[1,2-b][1,2,4]triazole-2-carboxamide]	49

Molecules with a lower Ki, results first:

Ki [nM]	SMILES
11	O=C(N[C@H]1CCc2cc(F)cc(F)c2NC1=O)c1cc2n(n1)CCOC2c1ccccc1 (stereo partly drawn) [Example #5, 4-phenyl-N-[(3S)-7,9-difluoro-2-oxo-1,3,4,5-tetrahydro-1-benzazepin-3-yl]-6,7-dihydro-4H-pyrazolo[5,1-c][1,4]oxazine-2-carboxamide]
16	CN1C(=O)[C@@H](NC(=O)c2ncn(Cc3ccccc3)n2)CCn2nc(CC3CCOC3)cc21 (stereo partly drawn) [Example #19, 1-benzyl-N-[(6S)-4-methyl-5-oxo-2-(tetrahydrofuran-3-ylmethyl)-7,8-dihydro-6H-pyrazolo[1,5-a][1,3]diazepin-6-yl]-1,2,4-triazole-3-carboxamide]
14	O=C(N[C@H]1CCc2cc(F)cc(F)c2NC1=O)c1nc2n(n1)C(c1ccccc1)CC2F (stereo partly drawn) [Example #27, 7-fluoro-5-phenyl-N-[(3S)-7,9-difluoro-2-oxo-1,3,4,5-tetrahydro-1-benzazepin-3-yl]-6,7-dihydro-5H-pyrrolo[1,2-b][1,2,4]triazole-2-carboxamide]
12	CN1C(=O)[C@@H](NC(=O)c2nc3n(n2)C(c2ccccc2)CC3F)COc2ccccc21 (stereo partly drawn) [Example #28, 7-fluoro-5-phenyl-N-[(3S)-5-methyl-4-oxo-2,3-dihydro-1,5-benzoxazepin-3-yl]-6,7-dihydro-5H-pyrrolo[1,2-b][1,2,4]triazole-2-carboxamide]
